Article PMC3856129, “Cytotoxicity and Genotoxicity Evaluation of Organochalcogens in Human Leucocytes: A Comparative Study between Ebselen, Diphenyl Diselenide, and Diphenyl Ditelluride” (BioMed Research International, 2013)

How the values were obtained:
human leucocytes [1] = assay: Comet Assay (DNA damage index); type: cell-based; settings: 3 hours at 37°C, compared to the control group
Experimental: (§1) 2 mL of dextran 5% (dissolved in Phosphate Buffer Saline 1%) was added to 8 mL of blood. The tube was gently mixed and left to stand at room temperature for 45 min. Afterwards, the supernatant was centrifuged (480 ×g, 10 min) and plasma was discarded. The pellet was washed with erythrocyte lysis solution (NH4Cl 150 mM; NaHCO3 10 mM; EDTA 1 mM) and centrifuged (480 ×g, 2 min). The supernatant was discarded and the pellet was washed twice with 1 mL erythrocyte lysis solution. After the second centrifugation, the pellet was suspended in 2 mL Hank's buffer solution (KCl 5.4 mM; Na2HPO4 0.3 mM; KH2PO4 0.4 mM; NaHCO3 4.2 mM; MgCl2 0.5 mM; NaCl 122.6 mM; D-glicose 10 mM, Tris-HCl 10 mM; CaCl2 1.3 mM; pH 7.4). The concentration of leucocytes was adjusted to 2000 cells/μL.
(§2) Leucocytes were exposed to ebselen, (PhSe)2, and (PhTe)2 at 5, 10, and 50 μM or an equal volume of DMSO (final concentration of 0.5%) during 3 hours at 37°C. Positive control group was treated with hydrogen peroxide (H2O2) 2 mM and sodium azide 1 mM.
Comet Assay was performed according to Collins with some modifications. After three hours of incubation, 15 μL of the sample was mixed with 90 μL of low-melting point agarose 0.75% and placed in a slide precoated with agarose 1%. A coverslip was added and the samples were left to solidify at 4°C. The coverslips were removed and the slides were placed on a lysis solution (NaCl 2.5 M; EDTA 100 mM; Tris-HCl 8 mM; Triton X-100 1%; pH 10–10.5) during 24 hours at 4°C. Afterwards, the slides were incubated in an electrophoresis solution (NaOH 300 mM; EDTA 1 mM; pH 13.5) for 20 minutes at 4°C and the electrophoresis was performed (25 V; 300 mA; 7 W) for 20 minutes. All the steps were performed in the dark until this moment. After electrophoresis, the slides were washed in a neutralizing solution (Tris-HCl 400 mM; pH 7.5) three times, washed with distilled water, and left to dry. The slides were rehydrated and fixed (Trichloroacetic acid 15%; ZnSO4 5%; glycerol 5%), washed three with distilled water, and left to dry. Afterwards, the rehydrated slides were stained (Na2CO3 5%; NH4NO3 0.1%; AgNO3 0.1%; H4[W12SiO40] 0.25%; formaldehyde 0.15%). The slides were immersed in acetic acid 1%, washed, and left to dry.
One hundred cells randomly selected were analyzed in each sample according to tail size and intensity in five classes. The damage score for each cell can range between 0 (no damage) and 4 (maximum damage), according to Figure 1. Damage index (DI) was defined as follows: DI = 1n1 + 2n2 + 3n3 + 4n4, where n1 represents the number of cells with damage level 1, n2 represents the number of cells with damage level 2, n3 represents the number of cells with damage level 3, and n4 represents the number of cells with damage level 4. At least two different individuals analyzed the slides under blind conditions.

human leucocytes [2] = assay: Trypan's Blue exclusion test (cell viability); type: cell-based; settings: for decrease in leucocyte viability: 50 μM; for effect on cell viability at lower concentrations: 5 and 10 μM
Experimental: as §1, §2
Trypan's Blue exclusion test was performed according to Mischel and Shiingi. After 3 hours of incubation, 50 μL of Trypan's Blue 0.4% was mixed with 50 μL of leucocytes and left to stand at room temperature for 5 minutes. Cell viability was determined microscopically (400x magnification) and expressed as number of viable cells divided by the total number of cells multiplied by 100.

[3] = 3 hours at 37°C, compared to the control groups

Compound	damage index (DI) of DNA (human leucocytes [1]; 50 μM)	damage index (DI) of DNA (human leucocytes [1]; 5 and 10 μM)	decrease in leucocyte viability (human leucocytes [2]; [3])	effect on cell viability at lower concentrations (human leucocytes [2]; 3 hours at 37°C)	decrease in leucocyte viability (human leucocytes [2]; human, 3 h, pH 7.4)
c1ccc([Te][Te]c2ccccc2)cc1 [(PhTe)2, Diphenyl Ditelluride]	significant increase in DI	increased DI	about 25%	did not cause significant decrease in cell viability	–
O=c1c2ccccc2[se]n1-c1ccccc1 [ebselen, Ebselen]	significant increase in DI	did not cause DNA damage	–	–	about 60%
c1ccc([Se][Se]c2ccccc2)cc1 [(PhSe)2, Diphenyl Diselenide]	significant increase in DI	did not cause DNA damage	about 20%	did not cause significant decrease in cell viability	–
